Measurements as given in paper PMC5967881 (Journal of medicinal chemistry, 2017).
Read-outs that look alike come from different tables or passages of the source.

What was measured:
[1] = biological target: wild-type AM2 channel (AM2-WT) (Influenza A virus, UniProt P0DOF5); assay: biochemical; conditions: pH 5.5, read-out: Electrophysiological TEVC assay (% WT channel inhibition), 100 μM, two-minute time point, pH 5.5, Xenopus laevis oocytes
[2] = tested on: A/California/07/2009 (H1N1) virus; assay: microbe, parasite or virus in culture; type: cell-based, influenza A virus; conditions: for activity at 10 µM: read-out: % plaque formation at 10 μM drug concentration against A/California/07/2009 (H1N1); for EC50: read-out: EC50 against A/California/07/2009 (H1N1)

Sequence of wild-type AM2 channel (AM2-WT) (P0DOF5 whole entry): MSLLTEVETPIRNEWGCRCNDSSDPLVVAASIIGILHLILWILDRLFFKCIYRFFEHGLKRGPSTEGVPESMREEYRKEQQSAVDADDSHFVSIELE

`c1ccc(-c2cc(CNC34CC5CC(CC(C5)C3)C4)no2)cc1` [9a, N-[(5-phenyl-1,2-oxazol-3-yl)methyl]adamantan-1-amine] was tested, and the inhibition at 100 µM [1] was ≤ 30%, the activity at 10 µM ([2]; Influenza A virus, H1N1, MDCK) was < 20% and the EC50 ([2]; Influenza A virus, H1N1, MDCK) was 100 to 1200 nM.

In the case of `OC12CC3CC(C1)CC(NCc1cc(-c4ccccc4Cl)on1)(C3)C2` [9d, 3-({[5-(2-chlorophenyl)-1,2-oxazol-3-yl]methyl}amino)adamantan-1-ol], the inhibition at 100 µM [1] is reported as ≤ 30%, the activity at 10 µM ([2]; Influenza A virus, H1N1, MDCK) is reported as < 20% and the EC50 ([2]; Influenza A virus, H1N1, MDCK) is reported as 100 to 1200 nM.

For `CSc1ccccc1-c1cc(CNC23CC4CC(CC(O)(C4)C2)C3)no1` [9f, 3-[({5-[2-(methylsulfanyl)phenyl]-1,2-oxazol-3-yl}methyl)amino]adamantan-1-ol], the inhibition at 100 µM [1] was ≤ 30%, the activity at 10 µM ([2]; Influenza A virus, H1N1, MDCK) was < 20% and the EC50 ([2]; Influenza A virus, H1N1, MDCK) was 100 to 1200 nM.

`Oc1ccccc1-c1cc(CNC23CC4CC(CC(C4)C2)C3)no1` [9h, 2-(3-(((adamantan-1-yl)amino)methyl)isoxazol-5-yl)phenol] was tested, and the inhibition at 100 µM [1] was ≤ 30%, the activity at 10 µM ([2]; Influenza A virus, H1N1, MDCK) was < 20% and the EC50 ([2]; Influenza A virus, H1N1, MDCK) was 100 to 1200 nM.

`Clc1ccc(-c2cc(CNC34CC5CC(CC(C5)C3)C4)no2)s1` [9q, N-((5-(5-chlorothiophen-2-yl)isoxazol-3-yl)methyl)adamantan-1-amine] was tested, and the “% plaque formation at 10 μM drug concentration against A/California/07/2009 (H1N1)” value [2] was 0%, the activity at 10 µM ([2]; Influenza A virus, H1N1, MDCK) was < 20% and the EC50 [2] was 100 ± 30 nM.

For `Clc1cc(-c2cc(CNC34CC5CC(CC(C5)C3)C4)no2)cs1` [9r, N-((5-(5-chlorothiophen-3-yl)isoxazol-3-yl)methyl)adamantan-1-amine], the activity at 10 µM ([2]; Influenza A virus, H1N1, MDCK) was < 20%.

For `COc1sccc1-c1cc(CNC23CC4CC(CC(C4)C2)C3)no1` [9t, N-((5-(2-methoxythiophen-3-yl)isoxazol-3-yl)methyl)adamantan-1-amine], the inhibition at 100 µM [1] was ≤ 30% and the activity at 10 µM ([2]; Influenza A virus, H1N1, MDCK) was < 20%.

`Clc1cc(-c2cc(CNC34CC5CC(CC(C5)C3)C4)no2)c(Cl)s1` [9u, N-((5-(2,5-dichlorothiophen-3-yl)isoxazol-3-yl)methyl)adamantan-1-amine] was tested, and the activity at 10 µM ([2]; Influenza A virus, H1N1, MDCK) was < 20%.

With `OC12CC3CC(C1)CC(NCc1cc(-c4cc(Cl)sc4Cl)on1)(C3)C2` [9v, 3-({[5-(2,5-dichlorothiophen-3-yl)-1,2-oxazol-3-yl]methyl}amino)adamantan-1-ol] the activity at 10 µM ([2]; Influenza A virus, H1N1, MDCK) was < 20%.

With “N-((5-(2-(methylsulfonyl)phenyl)isoxazol-3-yl)methyl)adamantan-1-amine [9m]” the “% plaque formation at 10 μM drug concentration against A/California/07/2009 (H1N1)” value [2] was 57.1 ± 2.4%.
